Measurements: US8586622B2, “Laminin-332 product on stimulating composition” (Shiseido Company, Ltd., priority 2009, dated 2013)
Like-named read-outs stand apart in the source and are kept apart here.

How the values were obtained:
HaCaT cells = assay: Quantification of number of viable HaCaT cells (alamarBlue); conditions: for fluorescence intensity of alamarBlue: 1 μM
Method: (§1) Human epidermal-derived HaCaT cells (H. Hans, et al., Experimental Cell Research, 239:399 (1998)) and human keratinocyte-derived KC cells (Sanko Junyaku Co., Ltd., manufacturer: LONZA Walkersville Inc.) were used. The cells were inoculated to a 24-well plate to have 4×10^4 cells per well. The cells were then cultured for 24 hours in a medium for cell culture (D-MEM (1 g/L glucose), manufactured by Wako Pure Chemical Industries, Ltd.) to which 0.1% bovine serum albumin (BSA) is supplemented (hereinafter, referred to as a “standard medium”) in a 5% CO2 and saturated water vapor atmosphere at 37° C. (degrees Celsius).
(§2) D-hydroxyproline used in this example was 4-cis-D-hydroxyproline.
(§3) After collecting the culture medium, the cells were washed with PBS and added with alamarBlue (trademark: Biosource International, Inc.) to have final concentration of 10%. Two hours later, according to the methods by Ahmed S. A. et al., (J. Immunol. Method., 170, 211-224 (1994)) and the instructions provided by the manufacturer, fluorescent intensity of the alamarBlue solution was measured with excitation wavelength of 544 nm and emission wavelength of 590 nm.

[1] = system: laminin-332 production in HaCaT cells; assay: Laminin-332 production in HaCaT cells (sandwich ELISA, relative to cell number), Example 1; type: cell-based, human; conditions: 1 μM; for relative value of laminin-332 concentration compared to the number of cells: 24 hours, negative control 0.04
Method: (§4) After completing the cell culture, culture medium was collected and centrifuged at 3000 rpm for five minutes. Concentration of laminin-332 in the supernatant was measured by ELISA (Amano, S., et al., J. Immunol. Methods, 224:161 (1999)). The ELISA used was sandwich type which utilizes biotinylated conjugate of BM165, i.e., a monoclonal antibody against α (alpha) 3 chain of laminin-5, and 6F12, i.e., a monoclonal antibody against β (beta)3 chain of laminin-5, and detection was carried out by utilizing avidin D labeled with a horseradish peroxidase (Vector Laboratories, Catalogue No. A-2004). PBS was used as a control.
The vertical line of the graph in FIG. 5 represents, the relative values of laminin-332 concentration compared to the number of cells that are present in culture supernatant in each well. The error bars for each experimental condition indicate the standard deviations of experimentally measured values obtained by repeating the experiment three times under the identical condition.

[2] = system: laminin-332 production in HaCaT cells; assay: Laminin-332 concentration in HaCaT culture supernatant after addition of various amino acids, Example 2; type: cell-based, human; conditions: for effect on stimulating production of laminin-332 (conclusion in words): Examples 1 and 2, KC and HaCaT cells; for concentration of laminin-332 in the culture supernatant / stimulation of the production of laminin-332 (in words): HaCaT cells; for concentration of laminin-332 in the culture supernatant: 24 hours, negative control 1.5-1.8 ng/mL; for stimulation of the production of laminin-332 (in words): 10 nM, 100 nM, 1000 nM
Method: as §4
Cell culture was carried out in the same manner as the Example 1 by using HaCaT cells. After that, the medium was switched to the standard medium added with amino acids such as L- or D-alanine, L- or D-hydroxyproline, L- or D-aspartic acid, L- or D-asparagine, L- or D-proline, or L- or D-serine with the concentration of 10 nM, 100 nM, or 1000 nM, and cultured for 24 hours. The standard medium to which no amino acid had been added was used as a negative control. […] The production amount of laminin-332 was measured in the same manner as the Example 1.
The vertical line of the graph in FIG. 7 represents the concentrations (ng/mL) of laminin-332 in the culture supernatant in each well. The error bars for each experimental condition indicate the standard deviations of experimentally measured values obtained by repeating the experiment four times under the identical condition.

KC cells = assay: Quantification of number of viable KC cells (alamarBlue); type: cell-based, human; conditions: for relative fluorescence intensity of alamarBlue: 1 μM, 24 hours, negative control 50; for cytotoxicity against KC cells: alamarBlue, no significant difference to negative control by Tukey-Kramer's test
Method: as §1, §2, §3

[3] = system: laminin-332 production in KC cells; assay: Laminin-332 production in KC cells (sandwich ELISA of culture supernatant, relative to cell number); type: cell-based, human; conditions: 1 μM; for relative value of laminin-332 concentration compared to the number of cells: 24 hours, negative control 0.35
Method: as §1, §2
PBS was used as a control.
as §3

[4] = HaCaT cells, 24 hours, negative control 300
[5] = HaCaT cells, alamarBlue, no significant difference to negative control by Tukey-Kramer's test

Structure (SMILES) | fluorescence intensity of alamarBlue (HaCaT cells; [4]) | cytotoxicity for HaCaT cells (HaCaT cells; [5]) | relative value of laminin-332 concentration compared to the number of cells [1] | effect on stimulating production of laminin-332 (conclusion in words) [2] | concentration of laminin-332 in the culture supernatant ([2]; amino acid 10 nM) [ng/mL] | concentration of laminin-332 in the culture supernatant ([2]; amino acid 100 nM) [ng/mL] | concentration of laminin-332 in the culture supernatant ([2]; amino acid 1000 nM) [ng/mL] | relative fluorescence intensity of alamarBlue (KC cells) | cytotoxicity against KC cells (KC cells) | relative value of laminin-332 concentration compared to the number of cells [3] | stimulation of laminin-332 production in KC cells (in words) ([3]; p less than 1% vs negative control by Tukey-Kramer's test) | cytotoxicity for HaCaT cells (HaCaT cells) | fluorescence intensity of alamarBlue (HaCaT cells; human, 24 h) | stimulation of laminin-332 production in HaCaT cells (in words) ([1]; p less than 1% vs negative control by Scheffe's F test) | stimulation of the production of laminin-332 (in words) [2]
O=C(O)[C@H]1C[C@@H](O)CN1 (relative stereo) [D-hydroxyproline, 4-cis-D-hydroxyproline] | 280 | no cytotoxicity | 0.065 | effect on stimulating production of laminin-332 was observed | 1.5 | 3.3 | 4.4 |  |  |  |  |  |  |  | 
C[C@@H](N)C(=O)O [D-alanine] |  |  | 0.11 | effect on stimulating production of laminin-332 was observed | 1.7 | 3.4 | 4.8 | 45 | no cytotoxicity | 0.50 | stimulated production of laminin-332 | no cytotoxicity | 250 | stimulated production of laminin-332 | 
NC(=O)C[C@@H](N)C(=O)O [D-asparagine] |  |  |  |  | 1.5 | 1.5 | 1.5 |  |  |  |  |  |  |  | do not stimulate the production of laminin-332
N[C@H](CC(=O)O)C(=O)O [D-aspartic acid] |  |  |  |  | 1.9 | 1.9 | 1.7 |  |  |  |  |  |  |  | do not stimulate the production of laminin-332
O=C(O)[C@H]1CCCN1 [D-proline] |  |  |  |  | 2.0 | 1.9 | 1.9 |  |  |  |  |  |  |  | do not stimulate the production of laminin-332
N[C@H](CO)C(=O)O [D-serine] |  |  |  |  | 1.8 | 1.8 | 1.8 |  |  |  |  |  |  |  | do not stimulate the production of laminin-332
C[C@H](N)C(=O)O [L-alanine] |  |  | 0.07 |  | 1.7 | 2.3 | 2.8 | 40 | no cytotoxicity | 0.40 |  | no cytotoxicity | 250 |  | 
NC(=O)C[C@H](N)C(=O)O [L-asparagine] |  |  |  |  | 1.6 | 1.5 | 1.6 |  |  |  |  |  |  |  | do not stimulate the production of laminin-332
N[C@@H](CC(=O)O)C(=O)O [L-aspartic acid] |  |  |  |  | 1.8 | 1.8 | 2.0 |  |  |  |  |  |  |  | do not stimulate the production of laminin-332
O=C(O)[C@@H]1C[C@@H](O)CN1 [L-hydroxyproline] | 280 | no cytotoxicity | 0.05 |  | 1.5 | 2.3 | 2.7 |  |  |  |  |  |  |  | 
O=C(O)[C@@H]1CCCN1 [L-proline] |  |  |  |  | 1.8 | 1.9 | 1.9 |  |  |  |  |  |  |  | do not stimulate the production of laminin-332
N[C@@H](CO)C(=O)O [L-serine] |  |  |  |  | 1.8 | 1.9 | 1.9 |  |  |  |  |  |  |  | do not stimulate the production of laminin-332
